The source of these data is the supplement of paper PMC11208160.
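Further: IS621 recombinase and bridge RNA in Escherichia coli cells.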

This series in a line: recombinant barcode read abundance after kanamycin selection (control-corrected) (log10(CPM+1)); higher = more efficient recombination; sequences stand for … in AGTGCAGAGAAAATCGGCCAGTTTTCTCTGCCTGCAGTCCGCATGCCGT…AGATTTATGCAGCGGACTGCCTTTCTCCCAAAGTGATAAACCGGACAGTATCATGGACCGGTTTTCCCGGTAATCCGTATTTGCAAGGTTGGTTTCACT; site = the 11-nt target. The procedure, abridged:
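The screen was pooled in E. coli and paired targets with IS621 bridge RNA target-binding loops. Recombination efficiency is taken from barcode counts per million at recombinant junctions, averaged and adjusted against the control. Values, in the form log10(CPM+1), come from duplicate plating on chloramphenicol/ampicillin LB agar or on chloramphenicol/ampicillin/kanamycin with 0.1 mM IPTG.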
“CCATTCCCTTGGGTTCTAACCTGTTGCTA (site TTGACGGCTAG)”: the “recombinant barcode read abundance (log10)” value worked out at 0.0589.
Under “CCATTGTCTTGGGTTCTAACCTGTTGCCG (site CCATTGTCTCG)” stands 0.124; under “CCATTGTCTTGGGTTCTAACCTGTTGCCG (site GTTAGAACTAA)”, 0.128.
For “CCGAATTCTTGGGTTCTAACCTGTTGCTT (site CCGAATTCTAA)” the value was 0.113; for “CCGAATTCTTGGGTTCTAACCTGTTGCTT (site TACCCACCTCT)”, 0.00604; for “CCGAGTCCTTGGGTTCTAACCTGTTGCCT (site CCGAATCCTAG)”, 0.328.
Under “CCGAGTCCTTGGGTTCTAACCTGTTGCCT (site CCGACTCCTAG)” stands 0.303; under “CCGAGTCCTTGGGTTCTAACCTGTTGCCT (site CCGAGTCCTAG)”, 0.246; under “CCGAGTCCTTGGGTTCTAACCTGTTGCCT (site CCGATTCCTAG)”, 1.2.
In the case of “CCGATATCTTGGGTTCTAACCTGTTGCCT (site CCGATATCTAG)”, the “recombinant barcode read abundance (log10)” value worked out at 0.287.
Under “CCGATATCTTGGGTTCTAACCTGTTGCCT (site CCGCTATCTAG)” stands 0.707; under “CCGATATCTTGGGTTCTAACCTGTTGCCT (site CCGGTATCTAG)”, 1.97.
In the case of “CCGATATCTTGGGTTCTAACCTGTTGCCT (site CCGTTATCTAG)”, the “recombinant barcode read abundance (log10)” value is 0.567.
In the case of “CCGCAGACTTGGGTTCTAACCTGTTGCCA (site CCGCAGACTTG)”, the “recombinant barcode read abundance (log10)” value is 0.0394.
Turning to “CCGCAGACTTGGGTTCTAACCTGTTGCCA (site TCGCAGACTAG)”, the “recombinant barcode read abundance (log10)” value turned out to be 0.0447.
For “CCGCATACTTGGGTTCTAACCTGTTGCCT (site CAGCATACTAG)” the value was 0.0752; for “CCGCATACTTGGGTTCTAACCTGTTGCCT (site CCGCATACTAG)”, 0.277; for “CCGCATACTTGGGTTCTAACCTGTTGCCT (site CGGCATACTAG)”, 0.0516.
For “CCGCATACTTGGGTTCTAACCTGTTGCCT (site CTGCATACTAG)” the value was 0.559.
Under “CCGCCGGCTTGGGTTCTAACCTGTTGCCT (site CCGCCAGCTAG)” stands 0; under “CCGCCGGCTTGGGTTCTAACCTGTTGCCT (site CCGCCCGCTAG)”, 0.222; under “CCGCCGGCTTGGGTTCTAACCTGTTGCCT (site CCGCCGGCTAG)”, 0.146.
As to “CCGCCGGCTTGGGTTCTAACCTGTTGCCT (site CCGCCTGCTAG)”, the “recombinant barcode read abundance (log10)” value came out at 0.0797.
For “CCGCCTGCTTGGGTTCTAACCTGTTGCCT (site CCGCCAGCTAG)” the value was 0.293; for “CCGCCTGCTTGGGTTCTAACCTGTTGCCT (site CCGCCCGCTAG)”, 0.198.
Under “CCGCCTGCTTGGGTTCTAACCTGTTGCCT (site CCGCCGGCTAG)” stands 0.24.
Under “CCGCCTGCTTGGGTTCTAACCTGTTGCCT (site CCGCCTGCTAG)” stands 0.0789.
On to “CCGCGTCCTTGGGTTCTAACCTGTTGCTA (site CCGCCTCCTTC)”, for which the “recombinant barcode read abundance (log10)” value was found to be 0.128.
For “CCGCGTCCTTGGGTTCTAACCTGTTGCTA (site CCGCGTCCTTA)” the value was 0.111; for “CCGCTATCTTGGGTTCTAACCTGTTGCCT (site CCGATATCTAG)”, 0.199; for “CCGCTATCTTGGGTTCTAACCTGTTGCCT (site CCGCTATCTAG)”, 0.379.
“CCGCTATCTTGGGTTCTAACCTGTTGCCT (site CCGGTATCTAG)”: the “recombinant barcode read abundance (log10)” value was 0.104.
For “CCGCTATCTTGGGTTCTAACCTGTTGCCT (site CCGTTATCTAG)” the value was 0.0555; for “CCGCTCGCTTGGGTTCTAACCTGTTGCCT (site CCGCTCGCTAG)”, 0.146; for “CCGCTCGCTTGGGTTCTAACCTGTTGCCT (site CCGCTTACTAG)”, 0.117.
For “CCGTCGTCTTGGGTTCTAACCTGTTGCCT (site CCGTCATCTAG)” the value was 0.0517.
With “CCGTCGTCTTGGGTTCTAACCTGTTGCCT (site CCGTCGTCTAG)”, the “recombinant barcode read abundance (log10)” value came out at 0.255.
For “CCGTCTACTTGGGTTCTAACCTGTTGCCA (site CCGTCTACTTG)” the value was 0.121.
“CCGTCTACTTGGGTTCTAACCTGTTGCCA (site TAACTGTCTAA)”: the “recombinant barcode read abundance (log10)” value is 0.164.
“CCGTCTACTTGGGTTCTAACCTGTTGCTC (site CCGTCTACTAA)”: the “recombinant barcode read abundance (log10)” value was determined as 0.0412.
Under “CCGTCTACTTGGGTTCTAACCTGTTGCTC (site CCGTCTACTCA)” stands 0.209.
Under “CCGTCTACTTGGGTTCTAACCTGTTGCTC (site CCGTCTACTGA)” stands 0.0724; under “CCGTCTACTTGGGTTCTAACCTGTTGCTC (site CCGTCTACTTA)”, 0.0131.
For “CCGTTGTCTTGGGTTCTAACCTGTTGCTA (site CCGTTGTCTTA)” the value was 0.48; for “CCGTTGTCTTGGGTTCTAACCTGTTGCTA (site GGTCGTACTAG)”, 0.0443.
Take “CCTAAGTCTTGGGTTCTAACCTGTTGCCA (site CCTAAGTCTTG)”: the “recombinant barcode read abundance (log10)” value was determined as 0.11.
For “CCTAAGTCTTGGGTTCTAACCTGTTGCCA (site GACTTAACTAA)” the value was 0.133.
For “CCTAGAACTTGGGTTCTAACCTGTTGCCT (site CCTAGAACTAG)” the value was 0.134; for “CCTAGAACTTGGGTTCTAACCTGTTGCCT (site CCTAGACCTAG)”, 0.0135.
For “CCTAGAACTTGGGTTCTAACCTGTTGCCT (site CCTAGAGCTAG)” the value was 0.126; for “CCTAGAACTTGGGTTCTAACCTGTTGCCT (site CCTAGATCTAG)”, 0.0929.
On to “CCTCATACTTGGGTTCTAACCTGTTGCCA (site CCTCATACTTG)”, for which the “recombinant barcode read abundance (log10)” value stood at 0.179.
Take “CCTCATACTTGGGTTCTAACCTGTTGCCA (site GGAGTACCTAT)”: the “recombinant barcode read abundance (log10)” value is 0.02.
Under “CCTCCCTCTTGGGTTCTAACCTGTTGCTG (site CCTCCCTCTCA)” stands 2.49; under “CCTCCCTCTTGGGTTCTAACCTGTTGCTG (site CCTCCCTCTTA)”, 0.036; under “CCTCGATCTTGGGTTCTAACCTGTTGCAT (site CCTCGATCTAT)”, 1.59.
Under “CCTCGATCTTGGGTTCTAACCTGTTGCAT (site TCTCGATCTAT)” stands 0.185; under “CCTCGGCCTTGGGTTCTAACCTGTTGCAT (site CCACGGCCTAT)”, 0.0708; under “CCTCGGCCTTGGGTTCTAACCTGTTGCAT (site CCTCGGCCTAT)”, 0.862.
“CCTCGTCCTTGGGTTCTAACCTGTTGCCC (site CCTCGTCCTGG)”: the “recombinant barcode read abundance (log10)” value was 0.175.
Under “CCTCGTCCTTGGGTTCTAACCTGTTGCCC (site TAGGACTCTAT)” stands 0.00798; under “CCTCTGCCTTGGGTTCTAACCTGTTGCCT (site CCTCTGCCTAG)”, 0.855.
For “CCTCTGCCTTGGGTTCTAACCTGTTGCCT (site CGTCTCCCTAG)” the value was 0.103; for “CCTGAATCTTGGGTTCTAACCTGTTGCCT (site CCTGAATCTAG)”, 0.1; for “CCTGAATCTTGGGTTCTAACCTGTTGCCT (site CCTGACTCTAG)”, 0.19.
Under “CCTGAATCTTGGGTTCTAACCTGTTGCCT (site CCTGAGTCTAG)” stands 0.279; under “CCTGAATCTTGGGTTCTAACCTGTTGCCT (site CCTGATTCTAG)”, 0.073; under “CCTGAGTCTTGGGTTCTAACCTGTTGCCT (site CCTGAATCTAG)”, 0.289.
Take “CCTGAGTCTTGGGTTCTAACCTGTTGCCT (site CCTGACTCTAG)”: the “recombinant barcode read abundance (log10)” value amounted to 0.0437.
For “CCTGAGTCTTGGGTTCTAACCTGTTGCCT (site CCTGAGTCTAG)” the value was 1.01; for “CCTGAGTCTTGGGTTCTAACCTGTTGCCT (site CCTGATTCTAG)”, 0.0908.
Under “CCTGGGCCTTGGGTTCTAACCTGTTGCCT (site CATGGGCCTAG)” stands 0.0944; under “CCTGGGCCTTGGGTTCTAACCTGTTGCCT (site CCTGGGCCTAG)”, 0.11; under “CCTGGGCCTTGGGTTCTAACCTGTTGCCT (site CGTGGGCCTAG)”, 0.0559.
For “CCTGGGCCTTGGGTTCTAACCTGTTGCCT (site CTTGGGCCTAG)” the value was 0; for “CCTGGGTCTTGGGTTCTAACCTGTTGCTT (site CATGGGTCTAG)”, 0.0557.
Consider “CCTGGGTCTTGGGTTCTAACCTGTTGCTT (site CCTGGGTCTAA)”, for which the “recombinant barcode read abundance (log10)” value was 1.08.
